Measurements: ChEMBL document CHEMBL1240448, “Synthesis of N-methyl-bisindolylmaleimide amino acid methyl ester conjugates and cytotoxicity study” (Eur J Med Chem, 2010)

How the values were obtained:
[1] = test system: HCT-8; assay: Cytotoxicity against human HCT8 cells after 96 hrs by MTT assay; conditions: HCT-8, 96 h
[2] = test system: A2780; assay: Cytotoxicity against human A2780 cells after 96 hrs by MTT assay; conditions: A2780, 96 h
[3] = test system: BGC-823; assay: Cytotoxicity against human BGC823 cells after 96 hrs by MTT assay; conditions: BGC-823, 96 h
[4] = test system: Bel-7402; assay: Cytotoxicity against human Bel7402 cells after 96 hrs by MTT assay; conditions: Bel-7402, 96 h
[5] = test system: MCF7; assay: Cytotoxicity against human MCF7 cells after 96 hrs by MTT assay; conditions: MCF7, 96 h
[6] = test system: A549; assay: Cytotoxicity against human A549 cells after 96 hrs by MTT assay; conditions: A549, 96 h

Row | Structure (SMILES) | IC50 [1] [µM] | IC50 [2] [µM] | IC50 [3] [µM] | IC50 [4] [µM] | IC50 [5] [µM] | IC50 [6] [µM]
1 | COC(=O)CNC(=O)Cn1cc(C2=C(c3c[nH]c4ccccc34)C(=O)N(C)C2=O)c2ccccc21 | 22.9 | 33.9 | 88.4 | 28.4 | 36 | 78.3
2 | COC(=O)[C@@H](CO)NC(=O)Cn1cc(C2=C(c3c[nH]c4ccccc34)C(=O)N(C)C2=O)c2ccccc21 | 22.9 | 23.2 | 28.9 | 67.2 | 24.5 | 37.9
3 | COC(=O)CCNC(=O)Cn1cc(C2=C(c3c[nH]c4ccccc34)C(=O)N(C)C2=O)c2ccccc21 | 50.9 | 44.5 | 44.9 | 28.4 | 47.8 | 37.6
4 | CC[C@H](C)[C@@H](NC(=O)Cn1cc(C2=C(c3c[nH]c4ccccc34)C(=O)N(C)C2=O)c2ccccc21)C(=O)OC | > 100 | > 100 | > 100 | > 100 | > 100 | > 100
5 | COC(=O)[C@H](NC(=O)Cn1cc(C2=C(c3c[nH]c4ccccc34)C(=O)N(C)C2=O)c2ccccc21)C(C)C | 25.8 | 23.8 | 48.2 | 4.01 | 16 | 30.6
6 | COC(=O)C(Cc1c[nH]c2ccccc12)NC(=O)Cn1cc(C2=C(c3c[nH]c4ccccc34)C(=O)N(C)C2=O)c2ccccc21 (single isomer, unassigned) | 9.19 | 5.39 | 3.73 | 4.11 | 4.83 | 45.2
7 | COC(=O)C(Cc1ccccc1)NC(=O)Cn1cc(C2=C(c3c[nH]c4ccccc34)C(=O)N(C)C2=O)c2ccccc21 (single isomer, unassigned) | 72.4 | 77.9 | 98 | 96.7 | 95.3 | 88.1
8 | COC(=O)C(Cc1ccc(O)c(O)c1)NC(=O)Cn1cc(C2=C(c3c[nH]c4ccccc34)C(=O)N(C)C2=O)c2ccccc21 (single isomer, unassigned) | > 100 | > 100 | > 100 | > 100 | > 100 | > 100
9 | COC(=O)C(Cc1ccc(O)cc1)NC(=O)Cn1cc(C2=C(c3c[nH]c4ccccc34)C(=O)N(C)C2=O)c2ccccc21 (single isomer, unassigned) | 93.2 | > 100 | > 100 | 28.1 | 51.7 | > 100
10 | COC(=O)C(C)NC(=O)Cn1cc(C2=C(c3c[nH]c4ccccc34)C(=O)N(C)C2=O)c2ccccc21 (single isomer, unassigned) | 21.4 | 15.8 | 60.4 | 9.34 | 15.3 | 30.5
11 | COC(=O)C(CC(C)C)NC(=O)Cn1cc(C2=C(c3c[nH]c4ccccc34)C(=O)N(C)C2=O)c2ccccc21 (single isomer, unassigned) | 37.8 | 38.5 | 45.5 | 42.4 | 37.4 | > 100
12 | COC(=O)CC(NC(=O)Cn1cc(C2=C(c3c[nH]c4ccccc34)C(=O)N(C)C2=O)c2ccccc21)C(=O)OC (single isomer, unassigned) | 23.4 | 15.4 | 24.6 | 9.36 | 25.8 | 74.2
13 | COC(=O)CCC(NC(=O)Cn1cc(C2=C(c3c[nH]c4ccccc34)C(=O)N(C)C2=O)c2ccccc21)C(=O)OC (single isomer, unassigned) | 29.2 | 32.3 | 25 | 47.4 | 23.4 | 73.7
14 | COC(=O)[C@H](NC(=O)Cn1cc(C2=C(c3c[nH]c4ccccc34)C(=O)N(C)C2=O)c2ccccc21)[C@@H](C)O (single isomer, unassigned) | 23.4 | 21.4 | 23.3 | > 100 | 22.9 | 25.7
